Source: patent US6051718A, “PDE IV inhibiting 2-cyanoiminoimidazole derivatives” (Janssen Pharmaceutica, N.V., priority 1996, dated 2000)

Target: T1, recombinant human MNL phosphodiesterase PDE IV B (Homo sapiens, UniProt Q07343)
T1 construct: made in house
Assay: Inhibition of recombinant human mononuclear lymphocyte (MNL) phosphodiesterase type IV B produced in insect cells with a baculovirus vector
Assay type: biochemical
Conditions: 3H-cAMP 0.8 μM, 10 minutes, 37° C., pH 8, DMSO 1%
Procedure: Example C.1: Inhibition of Recombinant Human Mononuclear Lymphocyte (MNL) Phosphodiesterase Type IV B Produced in Insect Cells with a Baculovirus Vector
The alleviating and/or curing effect of the instant compounds on allergic and atopic diseases was assessed by an in vitro assay system to detect an inhibiting effect on the recombinant human MNL phosphodiesterase type IV B.
Seventy-two hours after infection with recombinant baculovirus, the insect cells were harvested and pelleted at 500 g for 5 minutes. The cells were lysed in 10 ml lysis-buffer consisting of 20 mM Tris, 10 mM EGTA, 2 mM Na2 EDTA, 1% Triton-X-100, 1 mM Na3 VO4, 10 mM NaF, 2 μg/ml of leupeptine, pepstatine and aprotinine, 0.3 μg/ml benzamidine and 100 μg/ml TPCK pH 7.5. After 5 minutes on ice, solubilized cells were centrifuged at 4000 rpm for 15 minutes at 4° C. The resulting supernatant was filtered through a 0.45 μm filter (Millipore) and brought to TBS buffer (50 mM Tris, 150 mM NaCl pH 7.4).
After washing the column with equilibration buffer, PDE IV was eluted in 1.5 ml fractions containing 37.5 μl 1M Tris pH 8. The fractions were dialyzed overnight against 20 mM Tris, 2 mM Na2 EDTA and 400 mM NaCl pH 7.5 and tested for PDE IV activity. Indentification was done on SDS PAGE and Western Blot (anti-FLAG-M2). Active fractions were pooled, brought to 10% glycerol and stored at -70° C.
The incubation mixture (pH 8) (200 μl) contained 20 mM Tris, 10 mM magnesium sulphate, 0.8 μM ^3 H-cAMP (310 mCi/mmole) and the phosphodiesterase type IV, the amount depending on the enzymatic activity. […] When the effect of different compounds on phosphodiesterase activity was tested, the medium without cAMP was incubated with the compound(s) or its carrier (DMSO-1% final concentration) for 5 minutes. […] After cooling to room temperature, alkaline phosphatase (0.25 μg/ml) was added and the mixture was incubated at 37° C. for 20 min. 100 μl of the mixture was subsequently applied to a GF-B filter-microtiter-plate (Millipore) filled with 300 μl DEAE-Sephadex-A25 suspension. The plate was washed 3 times with 75 μl 20 mM Tris pH 7.5 and the filtrates were collected for counting in the Packard Top Count scintillation counter.
The inhibiting effect of the present compounds on recombinant human MNL phosphodiesterase PDE IV B was measured at different concentrations of the instant compounds.

T1 sequence (Q07343 whole entry): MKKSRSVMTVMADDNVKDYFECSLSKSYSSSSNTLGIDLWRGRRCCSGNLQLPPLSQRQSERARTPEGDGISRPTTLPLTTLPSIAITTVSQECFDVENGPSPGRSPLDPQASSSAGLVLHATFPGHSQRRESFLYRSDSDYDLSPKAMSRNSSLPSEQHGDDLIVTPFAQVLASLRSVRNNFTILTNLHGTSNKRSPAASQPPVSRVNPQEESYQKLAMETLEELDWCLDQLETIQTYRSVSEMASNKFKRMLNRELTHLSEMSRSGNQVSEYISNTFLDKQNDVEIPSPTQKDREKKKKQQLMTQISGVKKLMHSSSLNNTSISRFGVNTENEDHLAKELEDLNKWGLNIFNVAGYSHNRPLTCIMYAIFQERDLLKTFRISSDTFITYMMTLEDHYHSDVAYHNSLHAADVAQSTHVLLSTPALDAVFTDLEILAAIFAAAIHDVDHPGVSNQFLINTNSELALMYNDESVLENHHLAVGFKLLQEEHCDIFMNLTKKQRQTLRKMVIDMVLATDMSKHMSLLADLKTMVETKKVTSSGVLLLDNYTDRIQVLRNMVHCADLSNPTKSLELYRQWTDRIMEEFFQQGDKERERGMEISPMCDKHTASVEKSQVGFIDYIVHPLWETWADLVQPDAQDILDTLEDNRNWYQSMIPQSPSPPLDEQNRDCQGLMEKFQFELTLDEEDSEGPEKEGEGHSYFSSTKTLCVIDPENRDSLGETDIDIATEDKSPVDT

SMILES | IC50 [nM]
CC(Cn1cc[nH]c1=NC#N)c1ccc(OC(F)F)c(OCC2CC2)c1 (centres unmarked) [Compound 6] | 22.4
COc1ccc(C(C)CN2CCNC2=NC#N)cc1OC1CCCC1 (racemic) [Compound 1, (±)-[1-[2-[3-(cyclopentyloxy)-4-methoxyphenyl]propyl]-2-imidazolidinylidene] cyanamide] | 330
COc1ccc(C(C)Cn2ccnc2NC#N)cc1OCC1CC1 (single isomer, unassigned) [Compound 15] | 33.5
CC(Cn1ccnc1NC#N)c1ccc(OC(F)F)c(OCCCCCc2ccccc2)c1 (centres unmarked) [Compound 11] | 32.7
COc1ccc(C(C)Cn2cc[nH]c2=NC#N)cc1OC1CCOC1 (centres unmarked) [Compound 10] | 196
COc1ccc(C(C)Cn2ccnc2NC#N)cc1OCCCCCc1ccccc1 (single isomer, unassigned) [Compound 18] | 40.9
COc1ccc(C(C)Cn2ccnc2NC#N)cc1OC1CCCC1 (single isomer, unassigned) [Compound 12] | 21.9
COc1ccc(C(C)Cn2ccnc2NC#N)cc1OCC1CC1 (single isomer, unassigned) [Compound 14] | 27.2
CC(Cn1cc[nH]c1=NC#N)c1ccc(OC(F)F)c(OC2CCCC2)c1 (centres unmarked) [Compound 4] | 15.3
COc1ccc(C(C)Cn2cc[nH]c2=NC#N)cc1OCCCCCc1ccccc1 (centres unmarked) [Compound 9] | 36.1
N#CN=c1[nH]ccn1CCc1ccc(OC(F)F)c(OC2CCCC2)c1 [Compound 5] | 26.6
COc1ccc(C(C)Cn2ccnc2NC#N)cc1OC1CCCC1 (single isomer, unassigned) [Compound 13] | 22.2
COc1ccc(C(C)Cn2ccnc2NC#N)cc1OCCCCCc1ccccc1 (single isomer, unassigned) [Compound 19] | 37.5
CC(Cn1cc[nH]c1=NC#N)c1ccc(OC(F)F)c(OC2CCOC2)c1 (racemic) [Compound 2, (±)-[1-[2-[4-(difluoromethoxy)-3-[(tetrahydro-3-furanyl)oxy]phenyl]-propyl]-1,3-dihydro-2H-imidazol-2-ylidene]cyanamide] | 100
COc1ccc(C(C)Cn2cc[nH]c2=NC#N)cc1OC1CCCC1 (centres unmarked) [Compound 3] | 30
COc1ccc(CCn2cc[nH]c2=NC#N)cc1OC1Cc2ccccc2C1 [Compound 20] | 76.5
COc1ccc(C(C)Cn2cc[nH]c2=NC#N)cc1OCC1CC1 (centres unmarked) [Compound 8] | 56.5
